Measurements reported in PubChem BioAssay (NCI).
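Cells were grown in 96-well plates and exposed to each compound for 48 hours at five concentrations; endpoints were interpolated linearly between bracketing concentrations, or set to the highest concentration if not reached. TGI: total growth inhibition.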

Columns and labels:
Assay in all cases: NCI anticancer screen, dose series, 48 h
SF-295 CNS = tested on: SF-295 CNS
NCI-H23 lung = tested on: NCI-H23 lung
MOLT-4 leukemia = tested on: MOLT-4 leukemia
SK-MEL-28 melanoma = tested on: SK-MEL-28 melanoma
A549 NSCLC = tested on: A549 NSCLC
MCF7 breast = tested on: MCF7 breast
TK-10 renal = tested on: TK-10 renal
IGROV1 ovarian = tested on: IGROV1 ovarian
KM12 colon = tested on: KM12 colon
SR leukemia = tested on: SR leukemia
CCRF-CEM leukemia = tested on: CCRF-CEM leukemia

Row | Compound | TGI (SF-295 CNS) [µM] | TGI (NCI-H23 lung) [µM] | TGI (MOLT-4 leukemia) [µM] | TGI (SK-MEL-28 melanoma) [µM] | TGI (A549 NSCLC) [µM] | TGI (MCF7 breast) [µM] | TGI (TK-10 renal) [µM] | TGI (IGROV1 ovarian) [µM] | TGI (KM12 colon) [µM] | TGI (SR leukemia) [µM] | TGI (CCRF-CEM leukemia) [µM]
1 | Cn1c2ccccc2n2c3ccccc3c3nnc(N)c-3c12 | > 100 | > 100 | > 100 | > 100 | > 100 | > 74.7 | > 100 | > 100 | > 100 | > 100 | > 100
2 | NS(=O)(=O)c1ccc(NNc2c3ccccc3nc3c(C(=O)Nc4ccc(S(N)(=O)=O)cc4)cccc23)cc1 | > 100 | > 100 | 49.6 | > 100 | > 100 | > 100 | > 100 | > 100 | > 100 | 57.9 | 80.3
3 | Cc1nnc(NS(=O)(=O)c2ccc(N=Nc3c(O)c(C(=O)O)cc4ccccc34)cc2)s1 | > 100 | > 100 | > 100 | > 100 | > 100 | > 100 | > 100 | > 100 | > 100 | > 100 | > 100
4 | CCc1c(N=[N+]=[N-])c2ccccc2oc1=O | > 100 | > 100 | > 100 | > 100 | > 100 | > 100 | > 100 | > 100 | > 100 | > 100 | > 100
5 | COc1cc(OC)cc(Oc2nc3ccc(C(F)(F)F)cc3nc2-c2ccccc2)c1 | > 100 | > 100 | > 100 | > 100 | > 100 | > 100 | > 100 | > 100 | > 100 | > 100 | > 100
6 | O=C1C/C(=C\c2ccccc2)C(=O)c2ccccc2N1 | 36.8 | 48.1 | > 100 | 55.8 | 56.9 | > 100 | 54.7 | 38 | 39.5 | 99.5 | 49.8
7 | Cc1c(CNc2ccc(Cl)c(Cl)c2Cl)cnc2nc(N)nc(N)c12 | 3.16 | > 49.3 | 17.6 | 31.7 | > 41.3 | > 46.7 | 48.3 | > 49.3 | > 100 | > 57.9 | 6.55
8 | CCCCCCCC(=O)N1C2CC3CCC2(CS1(=O)=O)C3(C)C (stereo not given) | 50.8 | > 100 | 35.1 | > 100 | > 100 | 35.8 | > 100 | > 100 | 74.8 | 40.8 | 44.8
9 | NC(C(=O)O)C(O)c1cnc[nH]1 (stereo not given) | > 100 | > 100 | > 100 | > 100 | > 100 | > 100 | > 100 | > 100 | > 100 | > 100 | > 100
10 | CC(C)=CCN1c2ccccc2[C@@]2(CC=C(C)C)CCN(C)[C@@H]12 | 46.6 | > 100 | > 100 | > 100 | > 100 | 34.4 | > 100 | > 100 | > 100 | > 100 | > 100
11 | O=[N+]([O-])C1=Cc2c(O)ccc(O)c2C2c3ccccc3NC12 (stereo not given) | 31.5 | 15.8 | > 44.5 | 43 | 37.5 | 11.8 | 30 | 32.7 | 24.4 | > 64.3 | > 22.7
12 | CCO/C=N\C1=C(C#N)SC2=N/C(=C\c3ccco3)C(=O)N21 | > 100 | > 100 | > 100 | > 100 | > 100 | > 100 | > 100 | > 100 | > 100 | > 100 | > 100
13 | NC(Cc1c2ccccc2cc2ccccc12)C(=O)O (stereo not given) | > 100 | > 100 | 94.4 | > 100 | > 100 | > 100 | > 100 | > 100 | > 100 | > 100 | > 100
14 | COc1cc(CCNC2=CC(=O)c3ncccc3C2=O)ccc1O | 4.02 | 11.8 | 22.8 | 4.09 | 6.44 | 6.06 | 70.8 | 10.1 | 24.9 | 38.7 | > 100
15 | COC(=O)[C@]1(CCC(C)=O)C(=O)C=CN([C@H](C)c2ccccc2)[C@@H]1Cc1ccc(OC)c(OCc2ccccc2)c1I | 35.2 | 49.6 | > 100 | > 100 | 73.5 | 46.2 | 56.8 | 29.1 | 43.1 | > 100 | > 100
